# Results: US7183459B2, “Dwf7 mutants” (The Arizona Board of Regents on Behalf of the University of …, priority 2000, dated 2007)
# Read-outs that look alike come from different tables or passages of the source.
# Key:
# dwf7-1 plants [1] = assay: GA3 spray on 3-week-old dwf7-1 plants; type: in vivo, Arabidopsis thaliana; settings: 0.1 mM GA3 sprayed
# wild-type plants = assay: GA3 spray on wild-type plants; type: in vivo, Arabidopsis thaliana; settings: 0.1 mM GA3 sprayed
# Source text: The overall morphology of plants is dependent on three factors: cell size, shape, and number (Cosgrove (1997) Plant Cell 9:1031–1041). Various signals modulate these factors. Environmental signals, such as water, temperature, and light, are transduced to invoke internal hormone signals, including auxins, gibberellins, and BRs. These signals then trigger the cell elongation process, including but not limited to cell wall loosening by xyloglucan endotransglycosylases and expansins. Thus, a block in any of the signal transduction cascades from the environmental signals to the cell elongation process could result in dwarfism. Mutants resistant to or deficient in classic hormones, such as auxin (e.g., auxin resistant2 [axr2]; Timpte (1992) Genetics 138:1239–1249) and gibberellin ([ga1 to ga5 and gai]; Koornneef and van der Veen (1980) Theor. Appl. Genet. 58:257-263; Koornneef et al. (1985) Physiol. Plant. 65:33–39), often result in dwarfism. Thus, we first tested whether dwf7 is either rescued by or resistant to exogenous application of these hormones. […] The reduction of hypocotyl length in dwf7-1 was rescued by the application of BL (FIG. 3). Both wild-type and dwf7-1 plants responded to BL, but dwf7-1 plants were hypersensitive. The length of dwf7-1 hypocotyls was increased 160% in response to 1 nM BL as compared with the untreated control, whereas the wild-type responded marginally (5%).
# [2] = tested on: wild-type Arabidopsis seedlings; assay: Effects of compactin and MVA on growth of seedlings in liquid media; type: in vivo
# dwf7-1 plants [3] = assay: Feeding of BR biosynthetic intermediates to shoot tips of 3-week-old dwf7-1 plants; type: in vivo, Arabidopsis thaliana; settings: for elongation of dwf7-1 pedicels in response to BRs: FIG. 4 legend, versus water, n>15
# Protocol: (§1) Feeding experiments using biosynthetic intermediates were performed with 3-week-old mutant plants. The intermediates tested were diluted to the desired concentration with water containing 0.01% Tween 20. Two microliters of each brassinosteroid (BR) solution was applied daily to the shoot tips of plants by using a micro pipettman. After 1 week of treatment, total growth of inflorescence and pedicels was measured to the nearest millimeter (n=15).
# To pinpoint the defective step in the BR biosynthetic pathway, dwf7-1 mutants were treated with BR biosynthetic intermediates. Due to undetectable bioactivity of some early intermediates (CR to 6-oxocampestanol) in bioassays (Fujioka et al. 1995; Choe et al. (1998) Plant Cell 10:231–243), these were not used. Instead, three biologically active compounds were chosen, 22-OHCR, 6-deoxoCT, and BL, for these feeding tests (see FIG. 1). Because the 22α-hydroxylation reaction is reported to be mediated by DWF4 (Choe et al. (1998) Plant Cell 10:231–243), biochemical complementation of dwf mutants other than dwf4 by 22-OHCR places the defective step upstream of CR.
# (§2) Similarly, 3-week-old inflorescences of dwf7-2 were tested with 22-OHCR, 6-deoxoCT, teasterone, and BL.
# dwf7-2 = assay: Feeding of BR biosynthetic intermediates to dwf7-2 inflorescences; type: in vivo, Arabidopsis thaliana; settings: for elongation of pedicels and internodes of dwf7-2: 3-week-old inflorescences of dwf7-2; for biochemical complementation of the dwf7-2 allele: in vivo
# Protocol: as §1
# A second allele of dwf7 was identified among 43 dwarf mutants isolated by screening >50,000 M2 seeds of an EMS mutant population.
# as §2
# [4] = tested on: Wassilewskija-2 (Ws-2) wild type hypocotyls
# Protocol: (§3) Biochemical complementation of dwf7-1 plants with different concentrations of brassinolide (BL) was performed in liquid media. BL-supplemented (control, 10^−9, 10^−8, and 10^−7 M) sterile liquid media (1.5 mL) was dispensed into wells of a 24-well plate (Corning Co., Corning, N.Y.). Three seedlings, germinated on agar-solidified media, were transferred into each well. After a week of growth with continuous shaking (230 rpm), the seedlings were lightly stained with toluidine blue, and hypocotyls and roots were measured to the nearest millimeter.
# [5] = tested on: Δ^7 sterol C-5 desaturase; settings: enzyme prepared from maize microsomes; cited from earlier work
# Protocol for dwf7-1 hypocotyls: as §3
smiles,measurement,setting,value
C=C1C[C@]23C[C@@]1(O)CC[C@H]2[C@@]12C=C[C@H](O)[C@@](C)(C(=O)O1)[C@H]2[C@@H]3C(=O)O [GA3],rescue of the dwf7-1 phenotype,dwf7-1 plants [1],did not rescue
same,increase of inflorescence height,dwf7-1 plants [1]; 3-week-old dwf7-1 plants,< 10%
same,increase of inflorescence height,wild-type plants,< 10%
"C[C@@](O)(CCO)CC(=O)O [MVA, mevalonic acid]",reversal of compactin growth inhibition,[2]; 4.5 mM MVA applied simultaneously with 10 μM compactin,restored to the level of controls
"CC(C)[C@H](C)C[C@H](O)[C@@H](C)[C@H]1CC[C@H]2[C@@H]3CC=C4C[C@@H](O)CC[C@]4(C)[C@H]3CC[C@]12C [22-OHCR, 22 α-hydroxycampesterol]",elongation of dwf7-1 pedicels in response to BRs,dwf7-1 plants [3],greater than twofold
same,growth of treated dwf7-1 pedicels relative to wild-type,dwf7-1 plants [3]; in vivo,greater than or equal to that of the wild-type
same,rescue of dwf7-1 by exogenous application,dwf7-1 plants [3]; in vivo,Rescue
same,elongation of pedicels and internodes of dwf7-2,dwf7-2,significant elongation
same,biochemical complementation of the dwf7-2 allele,dwf7-2,biochemically complemented
CC(C)[C@H](C)C[C@H](O)[C@@H](C)[C@H]1CC[C@H]2[C@@H]3CC[C@H]4C[C@@H](O)CC[C@]4(C)[C@H]3CC[C@]12C [6-deoxoCT],elongation of dwf7-1 pedicels in response to BRs,dwf7-1 plants [3],greater than twofold
same,elongation of pedicels and internodes of dwf7-2,dwf7-2,significant elongation
CC(C)[C@H](C)C[C@H](O)[C@@H](C)[C@H]1CC[C@H]2[C@@H]3CC(=O)[C@H]4C[C@@H](O)CC[C@]4(C)[C@H]3CC[C@]12C [cathasterone],biochemical complementation of the dwf7-2 allele,dwf7-2,biochemically complemented
"CC[C@H](C)C(=O)O[C@H]1CCC=C2C=C[C@H](C)[C@H](CC[C@@H]3C[C@@H](O)CC(=O)O3)[C@H]21 [compactin, mevastatin]",growth of seedlings,"[2]; 10 μM compactin, liquid media",almost completely inhibited
CC(C)[C@H](C)[C@@H](O)[C@H](O)[C@@H](C)[C@H]1CC[C@H]2[C@@H]3CC(=O)[C@H]4C[C@@H](O)CC[C@]4(C)[C@H]3CC[C@]12C [teasterone],elongation of pedicels and internodes of dwf7-2,dwf7-2,significant elongation
"CC(C)[C@H](C)[C@@H](O)[C@H](O)[C@@H](C)[C@H]1CC[C@H]2[C@@H]3COC(=O)[C@H]4C[C@H](O)[C@H](O)C[C@]4(C)[C@H]3CC[C@]12C [BL, brassinolide]",elongation of dwf7-1 pedicels in response to BRs,dwf7-1 plants [3],greater than twofold
same,length of cells in dwf7-1 stem after BL treatment,dwf7-1 plants [3]; daily application of 10^-7 M BL for 1 week,converted to the length of the wild type
same,growth of treated dwf7-1 pedicels relative to wild-type,dwf7-1 plants [3]; in vivo,greater than or equal to that of the wild-type
same,wild-type hypocotyl increase,"[4]; 1 nM BL, BL-supplemented liquid media, light-grown",5%
same,BL concentration giving the strongest response of the wild type,"[4]; hypocotyl length, liquid media (FIG. 3)",100 nM
same,elongation of pedicels and internodes of dwf7-2,dwf7-2,significant elongation
same,elongation of dwf7-1 hypocotyls (increase),"dwf7-1 hypocotyls; 1 nM BL, BL-supplemented liquid media, light-grown, compared with untreated control",160%
same,rescue of dwf7-1 hypocotyls to wild-type length,dwf7-1 hypocotyls; 10 nM (10^-8 M) BL,completely rescued
same,rescue of dwf7-1 hypocotyls to wild-type length,dwf7-1 hypocotyls; 100 nM BL,completely rescued
same,response of dwf7-1 hypocotyls to BL,"dwf7-1 hypocotyls; 10^-9 M BL, light-grown (FIG. 3)",responds
[C-]#[O+] [carbon monoxide],effect on enzyme,[5],insensitive
